41 compounds from patent US10562891B2, “Quinazolinones as PARP14 inhibitors” (Ribon Therapeutics Inc., priority 2017, dated 2020) can be followed below.

Where a name gives a salt, the structure may show the parent alone.

The target of the assay is catalytic domain of human PARP14 (Homo sapiens (Human), UniProt Q460N5). The assay can be described thus: Enzymatic assay for inhibition of PARP14 (DELFIA, auto-modification with biotin-NAD). The settings on record: auto-modification of PARP14 by biotin-NAD, 50 nM PARP14, 3 μM biotin-NAD. It is filed as biochemical. A digest of the protocol: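 DELFIA auto-modification read-out: europium-streptavidin bound to biotin-NAD incorporated onto nickel-captured His-TEV PARP14 catalytic domain. Compound preincubated 30 min, then 50 nM enzyme with 3 μM biotin-NAD reacted 3 h, all at 25 °C, pH 8, then NAD quench. Percent inhibition normalized to rucaparib/DMSO wells, fitted (4- or 3-parameter) for IC50.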
catalytic domain of human PARP14, sequence (Q460N5 1611-1801): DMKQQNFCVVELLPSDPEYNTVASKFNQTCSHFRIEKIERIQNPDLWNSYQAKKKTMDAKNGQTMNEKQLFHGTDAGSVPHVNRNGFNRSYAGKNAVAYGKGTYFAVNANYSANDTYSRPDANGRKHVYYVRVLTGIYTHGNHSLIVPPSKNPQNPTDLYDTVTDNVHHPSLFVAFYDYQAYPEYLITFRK
Usually IC50 stands for the concentration that gives 50% inhibition. The low end stands for greater potency in that assay, the high end for weaker potency in that assay. On to `O=c1[nH]c(CSC2CCOCC2)nc2cc(NC3CCCC3)cc(Cl)c12` [Example 253, 5-Chloro-7-(cyclopentylamino)-2-(((tetrahydro-2H-pyran-4-yl)thio)methyl)quinazolin-4(3H)-one], for which the IC50 is less than 1 µM.

Compound `O=c1[nH]c(CS[C@H]2CC[C@H](O)CC2)nc2cc(Nc3ccccc3)ccc12` [Example 98, 2-(((trans-4-Hydroxycyclohexyl)thio)methyl)-7-(phenylamino)quinazolin-4(3H)-one] had a 50% inhibitory concentration (IC50) of less than 1 µM.

Turning to `Cc1cccc2c(=O)[nH]c(CSC3CCCNCC3)nc12` (centres unmarked) [Example 20, 2-((Azepan-4-ylthio)methyl)-8-methylquinazolin-4(3H)-one Trifluoroacetate], the IC50 was less than 1 µM.

`Cc1cccc(CN2CCC(SCc3nc4c(C)cccc4c(=O)[nH]3)CC2)n1` [Example 145, 8-Methyl-2-(((1-((6-methylpyridin-2-yl)methyl)piperidin-4-yl)thio)methyl)quinazolin-4(3H)-one bistrifluoroacetate]: the 50% inhibitory concentration (IC50) is less than 1 µM.

`Cc1ccc(F)c2c(=O)[nH]c(CSC3CCC(O)CC3)nc12` (centres unmarked) [Example 56, 5-Fluoro-2-(((4-hydroxycyclohexyl)thio)methyl)-8-methylquinazolin-4(3H)-one] showed an IC50 of less than 1 µM.

In the case of `Cc1cccc2c(=O)[nH]c(CSC3CCN(C(=O)[C@@H](N)CCCNC(=N)N)CC3)nc12` [Example 170, (S)-1-(4-Amino-5-(4-(((8-methyl-4-oxo-3,4-dihydroquinazolin-2-yl)methyl)thio)piperidin-1-yl)-5-oxopentyl)guanidine Trihydrochloride], the IC50 was less than 1 µM.

`CN1CC[C@H](CNc2cc3nc(CSC4CCOCC4)[nH]c(=O)c3c(F)c2F)[C@@H](F)C1` [Example 425]: the IC50 was less than 1 µM.

For `O=c1[nH]c(CSC2CCNCC2)nc2cc(NC3CCC(F)(F)C3)cc(F)c12` (centres unmarked) [Example 266, 7-((3,3-Difluorocyclopentyl)amino)-5-fluoro-2-((piperidin-4-ylthio)methyl)quinazolin-4(3H)-one], the concentration for half-maximal inhibition (IC50) is less than 1 µM.

Consider `Cc1cccc2c(=O)[nH]c(CS[C@H]3CC[C@H](C(N)=O)CC3)nc12` [Example 205, trans-4-(((8-Methyl-4-oxo-3,4-dihydroquinazolin-2-yl)methyl)thio)cyclohexane-1-carboxamide], for which the IC50 was less than 1 µM.

Compound `Cc1cccc2c(=O)[nH]c(CSC3CCN(S(=O)(=O)c4ccccn4)CC3)nc12` [Example 175, 8-Methyl-2-(((1-(pyridin-2-ylsulfonyl)piperidin-4-yl)thio)methyl)quinazolin-4(3H)-one] showed an IC50 of 1 to 10 µM.

`COc1ccc(CN2CCC(SCc3nc4c(C)cccc4c(=O)[nH]3)CC2)nc1` [Example 157, 2-(((1-((5-Methoxypyridin-2-yl)methyl)piperidin-4-yl)thio)methyl)-8-methylquinazolin-4(3H)-one bistrifluoroacetate] displayed an IC50 of less than 1 µM.

In turn, `CN1CC[C@@H](COc2cc(F)c3c(=O)[nH]c(CSC4CCOCC4)nc3c2)[C@@H](F)C1` (relative stereo) [Example 388] came in with an IC50 of less than 1 µM.

For `Cc1nccc2c(=O)[nH]c(CSC3CCOCC3)nc12` [Example 42, 8-Methyl-2-(((tetrahydro-2H-pyran-4-yl)thio)methyl)pyrido[3,4-d]pyrimidin-4(3H)-one], the IC50 was greater than 10 µM.

As for `CN(c1ccc2c(=O)[nH]c(CSC3CCOCC3)nc2c1)C1CCCCC1` [Example 125, 7-(Cyclohexyl(methyl)amino)-2-(((tetrahydro-2H-pyran-4-yl)thio)methyl)quinazolin-4(3H)-one], the IC50 is 1 to 10 µM.

`O=c1[nH]c(CS[C@H]2CC[C@H](O)CC2)nc2cc(NC3CCCCC3)cc(F)c12` [Example 249, 7-(Cyclohexylamino)-5-fluoro-2-((((1r,4r)-4-hydroxycyclohexyl)thio)methyl)quinazolin-4(3H)-one] displayed an IC50 of less than 1 µM.

`CC(Nc1cc2nc(CSC3CCOCC3)[nH]c(=O)c2c(F)c1F)C1CCOCC1` (centres unmarked) [Example 400] gave an IC50 greater than 10 µM.

`O=c1[nH]c(CS[C@H]2CC[C@H](O)CC2)nc2cc(OC[C@@H]3CCOC3)cc(F)c12` [Example 325a, 5-Fluoro-2-((((trans)-4-hydroxycyclohexyl)thio)methyl)-7-(((R)-tetrahydrofuran-3-yl)methoxy)quinazolin-4(3H)-one] came in with an IC50 of less than 1 µM.

Compound `Cc1ccncc1Nc1ccc2c(=O)[nH]c(CSC3CCOCC3)nc2c1` [Example 91, 7-((4-Methylpyridin-3-yl)amino)-2-(((tetrahydro-2H-pyran-4-yl)thio)methyl)quinazolin-4(3H)-one] displayed an IC50 of 1 to 10 µM.

Compound `O=c1[nH]c(CSC2CCOCC2)nc2cc(NCc3ccccc3)ccc12` [Example 119, 7-(Benzylamino)-2-(((tetrahydro-2H-pyran-4-yl)thio)methyl)quinazolin-4(3H)-one] showed an IC50 of less than 1 µM.

Take `NC(=O)[C@H]1CC[C@H](SCc2nc3cc(OCC4CCC4)cc(F)c3c(=O)[nH]2)CC1` [Example 311, Trans-4-(((7-(cyclobutylmethoxy)-5-fluoro-4-oxo-3,4-dihydroquinazolin-2-yl)methyl)thio)cyclohexane-1-carboxamide]: the IC50 lay within 1 to 10 µM.

Compound `CC(=O)N1CCC(CNc2cc3nc(CSC4CCOCC4)[nH]c(=O)c3c(F)c2F)CC1` [Example 369] returned an IC50 of less than 1 µM.

Compound `CNC(=O)c1ccc2c(=O)[nH]c(CSC3CCOCC3)nc2c1` [Example 77, N-Methyl-4-oxo-2-(((tetrahydro-2H-pyran-4-yl)thio)methyl)-3,4-dihydro Quinazoline-7-carboxamide] gave an IC50 greater than 10 µM.

Compound `COc1ccc2c(=O)[nH]c(CSC3CCOCC3)nc2c1` [Example 31, 7-Methoxy-2-(((tetrahydro-2H-pyran-4-yl)thio)methyl)quinazolin-4(3H)-one] yielded an IC50 of 1 to 10 µM.

Regarding `CO[C@H]1C[C@H](Nc2cc3nc(CSC4CCOCC4)[nH]c(=O)c3c(F)c2F)C1` [Example 362], the IC50 is less than 1 µM.

`O=c1[nH]c(CSC2CCOCC2)nc2cc(F)ccc12` [Example 30, 7-Fluoro-2-(((tetrahydro-2H-pyran-4-yl)thio)methyl)quinazolin-4(3H)-one] registered an IC50 of 1 to 10 µM.

As for `CCC(=O)N[C@H]1CC[C@H](SCc2nc3cc(OCC4CC4)cc(F)c3c(=O)[nH]2)CC1` [Example 378], the IC50 is less than 1 µM.

As for `O=c1[nH]c(CSC2CCOCC2)nc2cc(Nc3ccccn3)ccc12` [Example 81, 7-(Pyridin-2-ylamino)-2-(((tetrahydro-2H-pyran-4-yl)thio)methyl)quinazolin-4(3H)-one], the IC50 lay within 1 to 10 µM.

As for `O=c1[nH]c(CSC2CCOCC2)nc2cc(OCC3CCN(CC(F)F)CC3)cc(F)c12` [Example 300, 7-((1-(2,2-Difluoroethyl)piperidin-4-yl)methoxy)-5-fluoro-2-(((tetrahydro-2H-pyran-4-yl)thio)methyl)quinazolin-4(3H)-one], the IC50 is less than 1 µM.

Compound `O=c1[nH]c(CSC2CCOCC2)nc2cc(NC[C@@H]3CCOC3)c(F)c(F)c12` [Example 323a, (S)-5,6-Difluoro-2-(((tetrahydro-2H-pyran-4-yl)thio)methyl)-7-(((tetrahydrofuran-3-yl)methyl)amino)quinazolin-4(3H)-one] showed an IC50 of less than 1 µM.

In turn, `O=c1[nH]c(CS[C@H]2C[C@H](O)C2)nc2cc(OCC3CCOCC3)cc(F)c12` [Example 382] returned an IC50 of less than 1 µM.

Take `CS(=O)(=O)CCN1CCC(SCc2nc3cc(NC4CCCC4)cc(F)c3c(=O)[nH]2)CC1` [Example 276, 7-(Cyclopentylamino)-5-fluoro-2-(((1-(2-(methylsulfonyl)ethyl)piperidin-4-yl)thio)methyl)quinazolin-4(3H)-one]: the IC50 is less than 1 µM.

In the case of `Cc1cccc2c(=O)[nH]c(CSC3CCN(C(=O)CCN)CC3)nc12` [Example 167, 2-(((1-(3-Aminopropanoyl)piperidin-4-yl)thio)methyl)-8-methylquinazolin-4(3H)-one Hydrochloride], the IC50 was 1 to 10 µM.

For the compound `N#Cc1ccc2c(=O)[nH]c(CSC3CCOCC3)nc2c1` [Example 1, 4-Oxo-2-(((tetrahydro-2H-pyran-4-yl)thio)methyl)-3,4-dihydroquinazoline-7-carbonitrile], the IC50 is greater than 10 µM.

The compound `O=c1[nH]c(CSC2CCNCC2)nc2cc(NCC3CCC3)c(F)cc12` [Example 289, 7-((Cyclobutylmethyl)amino)-6-fluoro-2-((piperidin-4-ylthio)methyl)quinazolin-4(3H)-one hydrochloride] yielded an IC50 of 1 to 10 µM.

`O=c1[nH]c(CS[C@H]2CC[C@H](O)CC2)nc2cc(NC3CCCC3)cc(C(F)(F)F)c12` [Example 199, 7-(cyclopentylamino)-2-((((1R,4R)-4-hydroxycyclohexyl)thio)methyl)-5-(trifluoromethyl)quinazolin-4(3H)-one] showed an IC50 of less than 1 µM.

The compound `CC(C)(COc1cc(F)c2c(=O)[nH]c(CSC3CCOCC3)nc2c1)C(F)(F)F` [Example 421] came in with an IC50 of less than 1 µM.

Compound `O=c1[nH]c(CSC2CCOCC2)nc2cc(NC3CCCC3)cc(CO)c12` [Example 224, 7-(Cyclopentylamino)-5-(hydroxymethyl)-2-(((tetrahydro-2H-pyran-4-yl)thio)methyl)quinazolin-4(3H)-one] came in with a 50% inhibitory concentration (IC50) of 1 to 10 µM.

On to `Cc1cccc2nc(CSC3CCOCC3)[nH]c(=O)c12` [Example 9], for which the 50% inhibitory concentration (IC50) was 1 to 10 µM.

In turn, `O=c1[nH]c(CSC2CCNCC2)nc2cc(NC3CCCC3)c(F)cc12` [Example 226, 7-(Cyclopentylamino)-6-fluoro-2-((piperidin-4-ylthio)methyl)quinazolin-4(3H)-one hydrochloride] came in with an IC50 of less than 1 µM.

`Cc1ccc(Cl)c2c(=O)[nH]c(CSC3CCOCC3)nc12` [Example 34, 5-Chloro-8-methyl-2-(((tetrahydro-2H-pyran-4-yl)thio)methyl)quinazolin-4(3H)-one] came in with an IC50 of less than 1 µM.

On to `CO[C@H]1C[C@@H](Nc2cc3nc(CS[C@H]4CC[C@H](NC(C)=O)CC4)[nH]c(=O)c3c(F)c2F)C1` [Example 389], for which the IC50 is less than 1 µM.
